The values that follow come from ChEMBL document CHEMBL3045301, “Pharmacophore modeling of some novel indole -diketo acid and coumarin-based derivatives as HIV integrase inhibitors” (Med Chem Res, 2012).

For this assay, the target named is Human immunodeficiency virus type 1 integrase (Human immunodeficiency virus 1, UniProt Q7ZJM1). Description: Inhibition of Human immunodeficiency virus 1 integrase.
Chain of Human immunodeficiency virus type 1 integrase (Q7ZJM1 whole entry): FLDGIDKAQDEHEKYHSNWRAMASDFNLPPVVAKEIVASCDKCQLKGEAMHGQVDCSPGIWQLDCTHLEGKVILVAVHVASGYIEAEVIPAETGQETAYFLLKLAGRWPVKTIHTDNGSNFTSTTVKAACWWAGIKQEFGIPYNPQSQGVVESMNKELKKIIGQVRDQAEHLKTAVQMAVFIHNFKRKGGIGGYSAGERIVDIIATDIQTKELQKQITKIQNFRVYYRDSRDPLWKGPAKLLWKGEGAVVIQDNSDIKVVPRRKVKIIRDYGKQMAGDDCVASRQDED
By IC50 is commonly meant the point on the concentration scale where inhibition reaches its midpoint. A lower IC50 goes with inhibition by little substance. Turning to `O=C(O)/C(O)=C/C(=O)c1cn(Cc2ccccc2)c2ccccc12`, half-maximal inhibition (IC50) was put at 1 µM.
Take `O=c1oc2ccccc2c(O)c1Cc1ccc(Cc2c(O)c3ccccc3oc2=O)cc1`: half-maximal inhibition (IC50) was put at 69.2 µM.
`O=c1oc2cc(O)ccc2c(O)c1C(c1cccnc1)c1c(O)c2ccc(O)cc2oc1=O` gave an IC50 of 25 µM.
As to `O=c1oc2cc(O)ccc2c(O)c1C(c1ccc2c(c1)CC=CC2)c1c(O)c2ccc(O)cc2oc1=O`, half-maximal inhibition (IC50) required 3.5 µM.
Molecule `O=c1oc2ccccc2c(O)c1C(c1ccc(OCc2ccccc2)c(OCc2ccccc2)c1)c1c(O)c2ccccc2oc1=O` had a half-inhibitory concentration (IC50) of 12 µM.
For `O=c1oc2cc(O)ccc2c(O)c1C(c1ccc(CCc2ccccc2)cc1)c1c(O)c2ccc(O)cc2oc1=O` the value was 1.8 µM.
To `O=c1oc2ccccc2c(O)c1-c1ccccc1-c1c(O)c2ccccc2oc1=O` belongs 20.4 µM.
For `O=c1oc2ccccc2c(O)c1-c1cccc(-c2c(O)c3ccccc3oc2=O)c1` the value was 11 µM; for `CCn1cc(C(=O)/C=C(\O)C(=O)O)c2ccccc21`, 3 µM.
`CCn1cc(C(=O)/C=C(\O)C(=O)O)c2cc3c(cc21)OCO3` gave an IC50 of 3 µM.
To `O=c1oc2ccccc2c(O)c1C(c1cnc2c(c1)CC=CC2)c1c(O)c2ccccc2oc1=O` belongs 23 µM; to `O=c1oc2ccccc2c(O)c1C(c1ccc2c(c1)CC=CC2)c1c(O)c2ccccc2oc1=O`, 16 µM.
For the molecule `Cn1c(C(=O)/C=C(\O)C(=O)O)cc2ccccc21`, half-maximal inhibition (IC50) was put at 6 µM.
For `Cn1c(C(=O)/C=C(\O)C(=O)O)cc2cc3c(cc21)OCO3` the value was 2 µM.
`CCn1c(C(=O)/C=C(\O)C(=O)O)cc2ccccc21` had a concentration for half-maximal inhibition (IC50) of 1.6 µM.
Molecule `CCn1c(C(=O)/C=C(\O)C(=O)O)cc2cc3c(cc21)OCO3` gave a 50% inhibitory concentration (IC50) of 5 µM.
To `O=C(O)/C(O)=C/C(=O)c1cc2ccccc2n1Cc1ccccc1` belongs 1 µM.
To `O=C(O)/C(O)=C/C(=O)c1cc2cc3c(cc2n1Cc1ccccc1)OCO3` belongs 2 µM; to `Cn1cc(C(=O)/C=C(\O)C(=O)O)c2ccccc21`, 2 µM; to `Cn1cc(C(=O)/C=C(\O)C(=O)O)c2cc3c(cc21)OCO3`, 3 µM.
As for `O=c1oc2ccccc2c(O)c1C(c1cccs1)c1c(O)c2ccccc2oc1=O`, the IC50 was 148 µM.
To `O=c1oc2cc(O)ccc2c(O)c1Cc1c(O)c2ccc(O)cc2oc1=O` belongs 44.9 µM; to `CN(C)c1ccc(C(c2c(O)c3ccccc3oc2=O)c2c(O)c3ccccc3oc2=O)cc1`, 49 µM; to `O=c1oc2ccccc2c(O)c1C(c1ccc(-c2ccccc2)cc1)c1c(O)c2ccccc2oc1=O`, 13 µM.
The molecule `O=c1oc2ccccc2c(O)c1C(c1ccccc1)c1c(O)c2ccccc2oc1=O` showed a half-inhibitory concentration (IC50) of 38 µM.
To `O=c1oc2cc(O)ccc2c(O)c1C(c1ccccc1)c1c(O)c2ccc(O)cc2oc1=O` belongs 22.2 µM.
For `O=c1oc2ccccc2c(O)c1C(c1ccco1)c1c(O)c2ccccc2oc1=O` the value was 132 µM; for `O=c1oc2ccccc2c(O)c1C(c1ccc(O)cc1)c1c(O)c2ccccc2oc1=O`, 74.1 µM; for `O=c1oc2ccccc2c(O)c1C(c1cccc(C(c2c(O)c3ccccc3oc2=O)c2c(O)c3ccccc3oc2=O)c1)c1c(O)c2ccccc2oc1=O`, 1.2 µM.
For `O=c1oc2cc(O)ccc2c(O)c1C(c1ccc(C(c2c(O)c3ccc(O)cc3oc2=O)c2c(O)c3ccc(O)cc3oc2=O)cc1)c1c(O)c2ccc(O)cc2oc1=O` the value was 3.03 µM.
